How the values were obtained:
Format in all cases: in vivo
[1] = Dynamic SPECT imaging and biological distribution in dogs after intravenous injection; settings: for Heart biological distribution / Kidneys biological distribution / Liver biological distribution / Lungs biological distribution: i.v.
Description: (§1) Dogs were intravenously injected with [^99mTc(CO)3(MIBI)3]^+ or [^99mTc(MIBI)6][…]at dose of […]. Immediately following injection, dynamic photography for up to 120 min was performed using a Toshiba GCA 7200A two-probe SPECT and a low energy parallel aperture regular collimator. Time—radioactivity curves were also collected for the heart, liver, lungs, and kidneys. Target/non-target radioactivity ratios were calculated, and fall body imaging was performed separately at different times. The biological distributions of the imaging agents in the body were analyzed. Vein blood samples were collected separately at different times, and the dynamics of the blood clearance was analyzed. Flat myocardial imaging was conducted separately at different times, with myocardial tomographic imaging at 120 minutes post injection.

[2] = Blood clearance kinetics in dogs (vein blood samples); settings: intravenous administration, secondary model
Description: as §1

[3] = Biological distribution in the bodies of Kunming mice after caudal vein injection
Description: The complexes [^99mTc(CO)3(OH2)3]^+ and [^99mTc(CO)3(MIBI)3]^+ prepared in Example 1 were separately injected in the caudal vein of Kunming mice. The experiment was conducted on three mice within each time period, and the injection's activity was 925 KBq. The radioactivity of individual organs's tissue was measured at 5, 15, 30, and 60 minutes after the injection, and the results are represented by radioactive uptake rate per gram of tissue.
The results of the distribution of [^99mTc(CO)3(OH2)3]^+ in the mice's bodies are included in Tables 2; the results for [^99mTc(CO)3(MIBI)3]^+ are presented in Table 3. The value “% ID/g” is the percentage of the injection's total radioactivity that each gram of tissue accounts for i.e., the radioactive uptake rate per gram of tissue, with ID standing for “injected dose.”

## COC(C)(C)CN=[C]=[99Tc+](=[C]=O)(=[C]=O)(=[C]=O)(=[C]=NCC(C)(C)OC)=[C]=NCC(C)(C)OC [[^99mTc(CO)3(MIBI)3]^+]
[1]; 2 Minutes
  Target/Non-Target Uptake Ratio Heart/Kidneys: 0.56 ± 0.13
  Target/Non-Target Uptake Ratio Heart/Liver: 1 ± 0.18
  Target/Non-Target Uptake Ratio Heart/Lungs: 2.51 ± 0.25
[1]; 5 Minutes
  Target/Non-Target Uptake Ratio Heart/Kidneys: 0.53 ± 0.12
  Target/Non-Target Uptake Ratio Heart/Liver: 0.98 ± 0.11
  Target/Non-Target Uptake Ratio Heart/Lungs: 2.67 ± 0.27
[1]; 10 Minutes
  Target/Non-Target Uptake Ratio Heart/Kidneys: 0.53 ± 0.1
  Target/Non-Target Uptake Ratio Heart/Liver: 0.92 ± 0.13
  Target/Non-Target Uptake Ratio Heart/Lungs: 2.6 ± 0.26
  Heart biological distribution: 3.80 ± 0.44 % ID/g
  Kidneys biological distribution: 15.33 ± 0.75 % ID/g
  Liver biological distribution: 12.93 ± 0.70 % ID/g
  Lungs biological distribution: 5.13 ± 0.06 % ID/g
[1]; 20 Minutes
  Target/Non-Target Uptake Ratio Heart/Kidneys: 0.59 ± 0.1
  Target/Non-Target Uptake Ratio Heart/Liver: 0.97 ± 0.1
  Target/Non-Target Uptake Ratio Heart/Lungs: 2.8 ± 0.44
  Heart biological distribution: 3.97 ± 0.50 % ID/g
  Kidneys biological distribution: 14.70 ± 1.14 % ID/g
  Liver biological distribution: 14.00 ± 1.78 % ID/g
  Lungs biological distribution: 4.70 ± 0.20 % ID/g
[1]; 30 Minutes
  Target/Non-Target Uptake Ratio Heart/Kidneys: 0.62 ± 0.15
  Target/Non-Target Uptake Ratio Heart/Liver: 1.02 ± 0.11
  Target/Non-Target Uptake Ratio Heart/Lungs: 2.96 ± 0.43
  Heart biological distribution: 4.00 ± 0.30 % ID/g
  Kidneys biological distribution: 14.53 ± 1.86 % ID/g
  Liver biological distribution: 14.27 ± 1.97 % ID/g
  Lungs biological distribution: 4.70 ± 0.26 % ID/g
[1]; 40 Minutes
  Target/Non-Target Uptake Ratio Heart/Kidneys: 0.58 ± 0.08
  Target/Non-Target Uptake Ratio Heart/Liver: 1.06 ± 0.17
  Target/Non-Target Uptake Ratio Heart/Lungs: 3 ± 0.51
  Heart biological distribution: 3.73 ± 0.51 % ID/g
  Kidneys biological distribution: 13.27 ± 1.65 % ID/g
  Liver biological distribution: 16.37 ± 2.47 % ID/g
  Lungs biological distribution: 4.80 ± 0.72 % ID/g
[1]; 60 Minutes
  Target/Non-Target Uptake Ratio Heart/Kidneys: 0.6 ± 0.06
  Target/Non-Target Uptake Ratio Heart/Liver: 1.22 ± 0.2
  Target/Non-Target Uptake Ratio Heart/Lungs: 3.05 ± 0.52
  Heart biological distribution: 3.63 ± 0.49 % ID/g
  Kidneys biological distribution: 12.23 ± 1.00 % ID/g
  Liver biological distribution: 17.53 ± 2.85 % ID/g
  Lungs biological distribution: 4.40 ± 0.44 % ID/g
[1]; 90 Minutes
  Target/Non-Target Uptake Ratio Heart/Kidneys: 0.6 ± 0.06
  Target/Non-Target Uptake Ratio Heart/Liver: 1.25 ± 0.33
  Target/Non-Target Uptake Ratio Heart/Lungs: 3.1 ± 0.49
  Heart biological distribution: 3.77 ± 0.64 % ID/g
  Kidneys biological distribution: 12.37 ± 1.75 % ID/g
  Liver biological distribution: 19.67 ± 3.72 % ID/g
  Lungs biological distribution: 4.20 ± 0.26 % ID/g
[1]; 120 Minutes
  Target/Non-Target Uptake Ratio Heart/Kidneys: 0.63 ± 0.04
  Target/Non-Target Uptake Ratio Heart/Liver: 1.37 ± 0.26
  Target/Non-Target Uptake Ratio Heart/Lungs: 3.09 ± 0.56
  Heart biological distribution: 3.73 ± 0.58 % ID/g
  Kidneys biological distribution: 12.40 ± 3.48 % ID/g
  Liver biological distribution: 21.03 ± 2.78 % ID/g
  Lungs biological distribution: 4.07 ± 0.15 % ID/g
[1]; imaging, in words
  Radioactivity in the liver compared with [^99mTc(MIBI)6]^+: clearly lower
[1]; in words
  Liver time-radioactivity curve relative to the myocardial curve: lower than the myocardial curve
[2]
  CL (blood clearance): 401.33 ± 73.51 mL/h
  T(α)⅓ of blood clearance curve: 1.33 ± 0.12 min
  T(β)½ of blood clearance curve: 102.33 ± 25.58 min
[3]; 5 Minutes
  Target/Non-Target Uptake Ratio Heart/Blood: 20.99
  Target/Non-Target Uptake Ratio Heart/Liver: 1.88
  Target/Non-Target Uptake Ratio Heart/Lungs: 3.51
[3]; 5 Minutes after injection
  Blood radioactive uptake per gram of tissue: 1.03 ± 0.21 % ID/g
  Bones radioactive uptake per gram of tissue: 3.72 ± 0.84 % ID/g
  Brain radioactive uptake per gram of tissue: 0.18 ± 0.02 % ID/g
  Heart radioactive uptake per gram of tissue: 21.62 ± 2.84 % ID/g
  Kidneys radioactive uptake per gram of tissue: 57.90 ± 1.80 % ID/g
  Liver radioactive uptake per gram of tissue: 11.48 ± 0.88 % ID/g
  Lungs radioactive uptake per gram of tissue: 6.16 ± 0.48 % ID/g
  Muscles radioactive uptake per gram of tissue: 7.08 ± 0.52 % ID/g
  Spleen radioactive uptake per gram of tissue: 6.26 ± 1.29 % ID/g
[3]; 15 Minutes
  Target/Non-Target Uptake Ratio Heart/Blood: 64.47
  Target/Non-Target Uptake Ratio Heart/Liver: 2.49
  Target/Non-Target Uptake Ratio Heart/Lungs: 4.98
[3]; 15 Minutes after injection
  Blood radioactive uptake per gram of tissue: 0.32 ± 0.05 % ID/g
  Bones radioactive uptake per gram of tissue: 2.10 ± 0.10 % ID/g
  Brain radioactive uptake per gram of tissue: 0.18 ± 0.02 % ID/g
  Heart radioactive uptake per gram of tissue: 20.63 ± 3.89 % ID/g
  Kidneys radioactive uptake per gram of tissue: 33.66 ± 0.42 % ID/g
  Liver radioactive uptake per gram of tissue: 8.28 ± 0.90 % ID/g
  Lungs radioactive uptake per gram of tissue: 4.14 ± 0.90 % ID/g
  Muscles radioactive uptake per gram of tissue: 3.78 ± 0.88 % ID/g
  Spleen radioactive uptake per gram of tissue: 3.84 ± 0.90 % ID/g
[3]; 30 Minutes
  Target/Non-Target Uptake Ratio Heart/Blood: 86.54
  Target/Non-Target Uptake Ratio Heart/Liver: 3.23
  Target/Non-Target Uptake Ratio Heart/Lungs: 5.34
[3]; 30 Minutes after injection
  Blood radioactive uptake per gram of tissue: 0.24 ± 0.07 % ID/g
  Bones radioactive uptake per gram of tissue: 1.94 ± 0.29 % ID/g
  Brain radioactive uptake per gram of tissue: 0.12 ± 0.01 % ID/g
  Heart radioactive uptake per gram of tissue: 20.77 ± 1.60 % ID/g
  Kidneys radioactive uptake per gram of tissue: 23.94 ± 2.11 % ID/g
  Liver radioactive uptake per gram of tissue: 6.44 ± 1.03 % ID/g
  Lungs radioactive uptake per gram of tissue: 3.89 ± 0.54 % ID/g
  Muscles radioactive uptake per gram of tissue: 6.14 ± 0.78 % ID/g
  Spleen radioactive uptake per gram of tissue: 2.84 ± 0.41 % ID/g
[3]; 60 Minutes
  Target/Non-Target Uptake Ratio Heart/Blood: 149.15
  Target/Non-Target Uptake Ratio Heart/Liver: 4.13
  Target/Non-Target Uptake Ratio Heart/Lungs: 6.06
[3]; 60 Minutes after injection
  Blood radioactive uptake per gram of tissue: 0.13 ± 0.04 % ID/g
  Bones radioactive uptake per gram of tissue: 1.42 ± 0.31 % ID/g
  Brain radioactive uptake per gram of tissue: 0.08 ± 0.01 % ID/g
  Heart radioactive uptake per gram of tissue: 19.39 ± 0.91 % ID/g
  Kidneys radioactive uptake per gram of tissue: 11.30 ± 0.73 % ID/g
  Liver radioactive uptake per gram of tissue: 4.69 ± 0.34 % ID/g
  Lungs radioactive uptake per gram of tissue: 3.20 ± 0.85 % ID/g
  Muscles radioactive uptake per gram of tissue: 4.42 ± 0.36 % ID/g
  Spleen radioactive uptake per gram of tissue: 1.62 ± 0.32 % ID/g
[3]; in words
  Concentration in livers: comparatively low
  Specific concentration in tissues / heart: apparent concentration
  heart:blood ratio compared with [^99mTc(MIBI)6]^+: comparable
  heart:liver ratio compared with [^99mTc(MIBI)6]^+: higher
[3]; within 60 minutes, in words
  Radioactive retention: good radioactive retention

Source: patent US20030086873A1, “Myocardial imaging agent and preparation method thereof” (priority 2001, published 2003)
